Results from ChEMBL document CHEMBL5365484, “Discovery and Characterization of Novel CNS-Penetrant GPR55 Agonists” (J Med Chem, 2023).
Calls of active or inactive are those of the source. The calls are words filed in the database; no cut-off is given here.

Tests used:
[1] = Metabolic stability in rat liver microsomes assessed as intrinsic clearance at 1 uM preincubated for 60 mins followed by NADPH addition and measured after 60 mins by LC-MS/MS analysis; assay type: ADME, Microsome; conditions: time 120 min, read-out: CLH
[2] = target: G-protein coupled receptor 55 (Homo sapiens, UniProt Q9Y2T6); assay: Agonist activity at human GPR55 expressed in human HEK293 cells assessed as effect on calcium flux incubated for 5 mins by FLIPR analysis; assay type: functional, cell-based
Sequence of G-protein coupled receptor 55 (Q9Y2T6 whole entry): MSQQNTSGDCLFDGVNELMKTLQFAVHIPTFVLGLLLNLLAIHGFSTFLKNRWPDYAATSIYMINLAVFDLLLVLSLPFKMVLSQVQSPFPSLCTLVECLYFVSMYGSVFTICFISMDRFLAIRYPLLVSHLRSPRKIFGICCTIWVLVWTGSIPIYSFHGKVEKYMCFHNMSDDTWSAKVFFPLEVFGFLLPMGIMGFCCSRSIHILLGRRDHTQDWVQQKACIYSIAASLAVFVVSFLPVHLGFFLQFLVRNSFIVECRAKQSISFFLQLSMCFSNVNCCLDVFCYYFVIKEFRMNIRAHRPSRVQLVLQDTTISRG

[3] = Agonist activity at rat GPR55 expressed in human HEK293 cells assessed as effect on calcium flux incubated for 5 mins by FLIPR analysis; conditions: HEK293, 5 min
[4] = system: Rattus norvegicus; assay: Effect on haloperidol-induced […] activity in Sprague-Dawley rat model assessed as locomotor activity at 3 mg/kg, po and measured after 60 mins; assay type: functional, organism-based
[5] = system: Striatal neuron; assay: Neurophysiological effect on Wistar rat Striatal neuron assessed as decrease in potential firing frequency at 1 uM and measured after 3 mins by Whole-cell patch clamp assay; assay type: functional, cell-based
[6] = Toxicity in Wistar rat Striatal neuron assessed as cell viability at 1 uM; assay type: cell-based

Compound: C[C@@H](Nc1ccc(-c2cncc(C(F)(F)F)c2)cn1)c1ccc(F)cc1
- microsomal CLint at 1 µM [1]: 5.2 µL/min/mg

Compound: Cc1cncc(-c2ccc(N[C@H](C)c3ccc(F)cc3)nc2)c1
- microsomal CLint at 1 µM [1]: 234 µL/min/mg

Compound: C[C@@H](Nc1ccc(-c2ccc3oc(=O)[nH]c3c2)cn1)c1ccc(F)cc1
- EC50 [2]: 573 nM
- EC50 [3]: 2400 nM

Compound: C[C@@H](Nc1ccc(-c2ccc3oc(=O)n(C)c3c2)cn1)c1ccc(F)cc1
- microsomal CLint at 1 µM [1]: 3.9 µL/min/mg

Compound: C[C@@H](Nc1ccc(-c2cnn(C)c2)cn1)c1ccc(F)cc1
- EC50 [2]: 427 nM
- EC50 [3]: 3510 nM

Compound: CCc1cncc(-c2cnc(N[C@H](C)c3ccc(F)cc3)cn2)c1
- EC50 [2]: 3.01 nM
- EC50 [3]: 32.5 nM
- microsomal CLint at 1 µM [1]: 78 µL/min/mg

Compound: CCn1c(=O)c2c(nc(/C=C/c3ccc(OC)c(OC)c3)n2C)n(CC)c1=O
- Activity [4]: Active

Compound: C[C@@H](Nc1cnc(-c2cncc(CC(F)F)c2)cn1)c1ccc(F)cc1
- EC50 [2]: 0.439 nM
- EC50 [3]: 4.13 nM
- microsomal CLint at 1 µM [1]: 16 µL/min/mg
- Activity [5]: Active
- Activity [6]: Non-Toxic

Compound: C[C@@H](Nc1ccc(-c2cncc(S(C)(=O)=O)c2)cn1)c1ccc(F)cc1
- EC50 [2]: 85.1 nM
- EC50 [3]: 716 nM
- microsomal CLint at 1 µM [1]: 3.8 µL/min/mg

Compound: CCc1cncc(-c2ccc(N[C@H](C)c3ccc(F)cc3)nc2)c1
- microsomal CLint at 1 µM [1]: 48 µL/min/mg

Compound: C[C@@H](Nc1ccc(-c2cncc(C3CC3)c2)cn1)c1ccc(F)cc1
- EC50 [2]: 13.8 nM
- EC50 [3]: 514 nM
- microsomal CLint at 1 µM [1]: 10 µL/min/mg

Compound: C[C@@H](Nc1ncc(-c2cncc(CC(F)(F)F)c2)nn1)c1ccc(F)cc1
- microsomal CLint at 1 µM [1]: 6.4 µL/min/mg

Compound: C[C@@H](Nc1ccc(-c2cncc(S(C)(=N)=O)c2)cn1)c1ccc(F)cc1 (stereo not given in full)
- microsomal CLint at 1 µM [1]: 2 µL/min/mg
